Consider one compound from patent publication US20220313650A1, “METHODS FOR TREATING NEURODEVELOPMENTAL DISORDERS” (The Broad Institute, Inc., priority 2019, published 2022).

Structures are written as SMILES.

One assay deals with thalamo-TRN synapses. As to the kind of experiment: Optogenetically evoked EPSCs in patched TRN neurons, thalamo-TRN pathway. Type of assay: cell-based, mice. As to conditions: patched TRN neurons, LY379268 bath application. As to the method:
For conducting slice electrophysiology analysis, whole-cell patch-clamp recordings were performed using horizontal slices for the rebound bursting assays and angled-coronal thalamocortical slices for the synaptic optogenetics experiments (Agmon et al., 1991). 21-35 day old male C57BL6 mice and Ptchd1 Y/− (knockout) mice were used. Animals were transcardially perfused under isoflurane anesthesia with an ice-cold cutting solution (194 mM Sucrose, 30 mM NaCl, 4.5 mM KCl, 1.2 mM NaH2PO4, 10 mM Glucose, 2 mM MgCl2, 0.2 mM CaCl2, and 26 mM NaHCO3). Mice were then decapitated and the brains were carefully dissected out. Both cerebellum and olfactory bulb were removed from the brain and were placed and glued onto the stage of a Leica Vibratome with the ventral surface down and the pial surface towards the blade. 250 micron thick slices containing the TRN were then collected and recovered in regular artificial cerebrospinal fluid (aCSF; 119 mM NaCl, 2.3 mM KCl, 1 mM NaH2PO4; 11 mM Glucose, 1.3 mM MgCl2, 2.5 mM CaCl2), 26 mM NaHCO3) heated to 32° C. for 10 minutes and then at room temperature for at least 1 hr. All buffers were continuously bubbled with 95% O2/5% C02. Slices were then transferred to a submersion recording chamber where they were perfused with aCSF at a rate of 2 ml/min at room temperature. Patch recording pipettes were pulled using a Flaming/Brown micropipette puller (Sutter Instruments) and Borosilicate glass (KG33, King Precision Glass). The DC resistances were ˜4-6 MΩ. Potassium methanesulfonate based internal solution (140 mM KMeSO3; 10 mM KCl; 10 mM HEPES; 0.1 mM EGTA; 4 mM Mg-ATP; 0.2 mM Na-GTP; 10 mM hosphocreatine) was used. Neurons were visualized using infrared differential interference contrast (IR-DIC) microscopy (Olympus, BX51W1) with an upright microscope digital camera. […]
After allowing 1-2 weeks for mcherry-dflox.hChR2.EF1.AAV1 expression, acute somatosensory thalamocortical or horizontal brain slices were freshly obtained for in vitro recording and optogenetic stimulation (250 um thick, thalamocortical slices containing TRN from angled-coronal sections; Agmon and Connors, 1991) for optogenetic analysis. In brief, patch clamp recordings in voltage clamp configuration were performed while the Cortico-TRN or Thalamic-TRN pathway was activated by applying a blue LED (400-450 nm) light pulses (Lumen 300-LED Fluorescence Excitation Illumination System). For synaptic stimulation, neurons were held at −70 mV while 0.1-1.5 ms flashes were delivered directly to the recorded cell soma delivered through the 40× water immersion objective. […]

The subject of the next assay is Ptchd1 KO mice. As to the kind of experiment: Open field test of locomotor activity, Ptchd1 KO mice. Type of assay: in vivo. As to conditions: 90 minutes. On the procedure: For performing the open field test, mice were allowed to habituate to the behavioral testing room for 1 hour before the experiment. The locomotor activity in mice was evaluated over a 90 minute period in an automated Omnitech Digiscan apparatus (AccuScan Instruments). Locomotor activity was assessed as total distance traveled (m). For drug treatment experiments, mice received an intraperitoneal injection 15 minutes before the assay and then where placed kindly in the left corner, head facing into the corner.
The effects of mGluR2/3 activation on the locomotor activity of WT mice and Ptchd1 mutant mice were evaluated. In brief, all mice were treated with mGluR2/3 agonist, LY379268, at three different dosages (1 mg/kg, 5 mg/kg and 10 mg/kg) for open-field testing.
Here, whether mGluR3 activation would rescue the hyperactivity phenotype of Ptchd1 KO mice was evaluated. Locomotor activity estimated as total distance travelled (in) was assessed over a 90 min period in an automated Omnitech Digiscan apparatus. For drug treatment experiments, mice were placed in the open-field arena for 30 minutes prior to Mavalon 63 (5 mg/kg and 10 mg/kg in saline; i.p.), or vehicle injections before being returned to the arena.

As for `N[C@@]1(C(=O)O)COC2C(C(=O)O)C21` (stereo in doubt) [LY379268, (1R,4R,5S,6R)-4-Amino-2-oxabicyclo[3.1.0] hexane-4,6-dicarboxylic acid], the “thalamo-TRN evoked EPSCs” value with thalamo-TRN synapses was “did not affect the thalamo-TRN evoked EPSCs”. The total distance traveled result in the assay on Ptchd1 KO mice (LY379268 5 mg/kg i.p.) and with Ptchd1 KO mice (LY379268 10 mg/kg i.p.) was “traveled significantly less distances to a comparable level of wild type mice” each time.
